In US12077503B2, “Substituted cyclic amides and their use as herbicides” (FMC CORPORATION, priority 2015, dated 2024):
Where two headings read alike, the source gives them in different places.

Tests used:
Assay in all cases: Test A postemergence
Assay type in all cases: in vivo
[1] = tested on: giant foxtail (Setaria faberii); details: Setaria faberi, post-emergence, 240 h; for pest or weed control at 125 g/ha: 125 g ai/ha; for pest or weed control at 500 g/ha: 500 g ai/ha
In short: (§1)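 Preemergence soil spray on seeded pots or post-emergence spray on 1–2 leaf plants, in loam–sand blend. Greenhouse ~10 d. Visual rating 0–100 against untreated plants.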

[2] = tested on: barnyardgrass (Echinochloa crus-galli); details: Echinochloa crus-galli, post-emergence, 240 h, 125 g ai/ha, postemergence; visual injury after approximately 10 d; 0 to 100 scale (0 no effect, 100 complete control); read-out: Plant response rating, Barnyardgrass
In short: as §1

[3] = tested on: Galium (catchweed bedstraw, Galium aparine); details: Galium, post-emergence, 240 h; for pest or weed control at 125 g/ha: 125 g ai/ha; for pest or weed control at 500 g/ha: 500 g ai/ha
In short: as §1

[4] = tested on: pigweed (Amaranthus retroflexus); details: Amaranthus retroflexus, post-emergence, 240 h; for pest or weed control at 125 g/ha: 125 g ai/ha; for pest or weed control at 500 g/ha: 500 g ai/ha
In short: as §1

corn (Zea mays) = details: Zea mays, post-emergence, 240 h; for Corn plant response rating (crop injury, 0 = no effect, 100 = complete kill) at 125 g/ha / plant injury at 125 g/ha: 125 g ai/ha; for Corn plant response rating (crop injury, 0 = no effect, 100 = complete kill) at 125 g/ha: visual injury after approximately 10 d; for Corn plant response rating (crop injury, 0 = no effect, 100 = complete kill) at 125 g/ha / Corn plant response rating (crop injury, 0 = no effect, 100 = complete kill) at 500 g/ha: 0 to 100 scale (0 no effect, 100 complete control); for plant injury at 125 g/ha: read-out: Corn plant response rating (0 to 100 scale); for plant injury at 500 g/ha / Corn plant response rating (crop injury, 0 = no effect, 100 = complete kill) at 500 g/ha: 500 g ai/ha; for plant injury at 500 g/ha: 0 to 100 scale, 0 is no effect, 100 is complete control, read-out: Corn plant response rating; for Corn plant response rating (crop injury, 0 = no effect, 100 = complete kill) at 500 g/ha: visual injury, approx. 10 d
In short: as §1

[5] = postemergence, visual injury after approximately 10 d, 0 to 100 scale (0 no effect, 100 complete control), read-out: Plant response rating, Foxtail, Giant
[6] = postemergence, visual injury after approximately 10 d, 0 to 100 scale (0 no effect, 100 complete control), read-out: Plant response rating, Galium
[7] = postemergence, visual injury after approximately 10 d, 0 to 100 scale (0 no effect, 100 complete control), read-out: Plant response rating, Pigweed
[8] = postemergence, visual injury vs untreated controls after approx. 10 d, 0 = no effect, 100 = complete control, read-out: Foxtail, Giant plant response rating (0 to 100 scale)
[9] = postemergence, 0 to 100 scale, 0 is no effect, 100 is complete control, read-out: Foxtail, Giant plant response rating
[10] = postemergence, visual injury vs untreated controls after approx. 10 d, 0 = no effect, 100 = complete control, read-out: Galium plant response rating (0 to 100 scale)
[11] = postemergence, 0 to 100 scale, 0 is no effect, 100 is complete control, read-out: Galium plant response rating
[12] = postemergence, visual injury vs untreated controls after approx. 10 d, 0 = no effect, 100 = complete control, read-out: Pigweed plant response rating (0 to 100 scale)
[13] = postemergence, 0 to 100 scale, 0 is no effect, 100 is complete control, read-out: Pigweed plant response rating
[14] = postemergence, visual injury vs untreated controls after approx. 10 d, 0 = no effect, 100 = complete control
[15] = Postemergence, visual rating about 10 d after treatment, read-out: Foxtail, Giant plant response rating (0 to 100 scale)
[16] = Postemergence, visual injury, 0 to 100 scale (0 no effect, 100 complete control), approx. 10 d, read-out: Plant response rating, Foxtail, Giant
[17] = Postemergence, visual rating about 10 d after treatment, read-out: Galium plant response rating (0 to 100 scale)
[18] = Postemergence, visual injury, 0 to 100 scale (0 no effect, 100 complete control), approx. 10 d, read-out: Plant response rating, Galium
[19] = Postemergence, visual rating about 10 d after treatment, read-out: Pigweed plant response rating (0 to 100 scale)
[20] = Postemergence, visual injury, 0 to 100 scale (0 no effect, 100 complete control), approx. 10 d, read-out: Plant response rating, Pigweed
[21] = Postemergence, visual rating about 10 d after treatment

Row | Compound | pest or weed control at 125 g/ha [1, 5] [%] | pest or weed control at 125 g/ha [2] [%] | pest or weed control at 125 g/ha [3, 6] [%] | pest or weed control at 125 g/ha [4, 7] [%] | Corn plant response rating (crop injury, 0 = no effect, 100 = complete kill) at 125 g/ha (corn (Zea mays); postemergence) [%] | pest or weed control at 125 g/ha [1, 8] [%] | pest or weed control at 500 g/ha [1, 9] [%] | pest or weed control at 125 g/ha [3, 10] [%] | pest or weed control at 500 g/ha [3, 11] [%] | pest or weed control at 125 g/ha [4, 12] [%] | pest or weed control at 500 g/ha [4, 13] [%] | plant injury at 125 g/ha (corn (Zea mays); [14]) [%] | plant injury at 500 g/ha (corn (Zea mays); postemergence) [%] | also measured
1 | CN1C[C@H](c2cc(F)c(F)c(F)c2)[C@@H](C(=O)Nc2ccc(F)c(F)c2F)C1=O [Compound 757] | 90 | 90 | 50 | 20 | 70 |  |  |  |  |  |  |  |  | 
2 | CN1C[C@H](c2cc(F)cc(F)c2)[C@@H](C(=O)Nc2ccc(F)cc2C(F)(F)F)C1=O [Compound 758] | 80 | 70 | 40 | 0 | 20 |  |  |  |  |  |  |  |  | 
3 | CN1C[C@H](c2cc(F)cc(F)c2)[C@@H](C(=O)Nc2c(F)cccc2F)C1=O [Compound 759] | 20 | 70 | 0 | 0 | 0 |  |  |  |  |  |  |  |  | 
4 | CCc1ccc([C@H]2CNC(=S)[C@@H]2C(=O)Nc2cccc(F)c2C)cc1 [Compound 761] | 60 | 70 | 0 | 0 | 0 |  |  |  |  |  |  |  |  | 
5 | CCc1ccc([C@H]2CNC(=S)[C@@H]2C(=O)Nc2cccc(F)c2F)cc1 [Compound 762] | 20 | 90 | 0 | 0 | 0 |  |  |  |  |  |  |  |  | 
6 | COc1cc(C(F)(F)F)ccc1[C@H]1CNC(=O)[C@@H]1C(=O)Nc1cccc(F)c1F [Compound 1203] |  |  |  |  |  | 90 | 90 | 50 | 60 | 0 | 20 | 40 | 70 | 
7 | COc1ccc([C@H]2CN(C)C(=O)[C@@H]2C(=O)Nc2ccccc2SC)c(OC)c1 [Compound 1216] |  |  |  |  |  | 20 | 80 | 0 | 0 | 0 | 0 | 0 | 0 | 
8 | COc1cc([C@H]2CN(C)C(=O)[C@@H]2C(=O)Nc2ccccc2SC)cc(OC)c1OC [Compound 1218] |  |  |  |  |  | 0 | 50 | 0 | 0 | 0 | 0 | 0 | 0 | 
9 | CSc1ccccc1NC(=O)[C@H]1C(=O)N(C)C[C@@H]1c1ccc(F)c(C)c1 [Compound 1312] |  |  |  |  |  |  |  |  |  |  |  |  |  | pest or weed control at 125 g/ha [1, 15]: 90%; pest or weed control at 500 g/ha [1, 16]: 90%; pest or weed control at 125 g/ha [3, 17]: 50%; pest or weed control at 500 g/ha [3, 18]: 60%; pest or weed control at 125 g/ha [4, 19]: 0%; pest or weed control at 500 g/ha [4, 20]: 40%; plant injury at 125 g/ha (corn (Zea mays); [21]): 40%; Corn plant response rating (crop injury, 0 = no effect, 100 = complete kill) at 500 g/ha (corn (Zea mays); Postemergence): 90%
10 | CN1C[C@H](c2ccc(C(F)(F)F)nc2)[C@@H](C(=O)Nc2ccc(F)c(F)c2F)C1=O [Compound 1373] |  |  |  |  |  |  |  |  |  |  |  |  |  | pest or weed control at 125 g/ha [1, 15]: 90%; pest or weed control at 500 g/ha [1, 16]: 90%; pest or weed control at 125 g/ha [3, 17]: 60%; pest or weed control at 500 g/ha [3, 18]: 60%; pest or weed control at 125 g/ha [4, 19]: 70%; pest or weed control at 500 g/ha [4, 20]: 90%; plant injury at 125 g/ha (corn (Zea mays); [21]): 90%; Corn plant response rating (crop injury, 0 = no effect, 100 = complete kill) at 500 g/ha (corn (Zea mays); Postemergence): 90%
